This note sets out measurements from ChEMBL document CHEMBL4507263, “Data for DCP probe BAY-474” (2021).

The source made the active and inactive calls. The rule behind the calls is not given here.

The target in test [1] is T1, Muscarinic acetylcholine receptor M2 (Homo sapiens) (UniProt P08172).
T1 sequence (whole entry): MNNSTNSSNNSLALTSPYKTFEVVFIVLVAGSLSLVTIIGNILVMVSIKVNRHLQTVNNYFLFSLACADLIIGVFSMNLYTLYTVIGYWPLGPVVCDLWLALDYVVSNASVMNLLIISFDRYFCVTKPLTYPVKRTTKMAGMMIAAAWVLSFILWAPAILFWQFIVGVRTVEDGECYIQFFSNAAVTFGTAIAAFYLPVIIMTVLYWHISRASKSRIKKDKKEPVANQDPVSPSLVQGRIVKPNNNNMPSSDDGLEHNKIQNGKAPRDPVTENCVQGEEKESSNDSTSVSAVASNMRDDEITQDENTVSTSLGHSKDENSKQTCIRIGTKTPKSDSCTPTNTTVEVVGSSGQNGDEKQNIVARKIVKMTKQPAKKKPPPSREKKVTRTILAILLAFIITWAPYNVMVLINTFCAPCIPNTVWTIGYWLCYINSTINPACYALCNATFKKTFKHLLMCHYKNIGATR
To be noted: Compound concentration 10.0 uM.

In test [2] the target is Delta-type opioid receptor (Homo sapiens) (UniProt P41143). As to conditions: Compound concentration 10.0 uM.
Sequence of Delta-type opioid receptor (Homo sapiens) (P41143 whole entry): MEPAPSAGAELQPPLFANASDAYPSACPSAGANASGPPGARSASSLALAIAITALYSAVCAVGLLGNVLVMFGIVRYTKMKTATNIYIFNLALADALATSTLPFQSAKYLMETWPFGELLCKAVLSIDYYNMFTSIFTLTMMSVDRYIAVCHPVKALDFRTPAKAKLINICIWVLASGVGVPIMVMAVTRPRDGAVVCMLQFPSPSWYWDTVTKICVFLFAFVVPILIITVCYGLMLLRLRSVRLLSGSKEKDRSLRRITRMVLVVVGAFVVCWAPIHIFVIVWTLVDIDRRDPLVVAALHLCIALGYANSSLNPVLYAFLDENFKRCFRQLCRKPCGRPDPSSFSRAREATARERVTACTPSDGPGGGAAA
Test [3] has as its target Hepatocyte growth factor receptor (Homo sapiens, UniProt P08581). Description: Homogeneous Time Resolved Fluorescence Assay.
Test [4] addresses Beta-1 adrenergic receptor (Homo sapiens) (UniProt P08588). To be noted: Compound concentration 10.0 uM.
The target of test [5] is D(1A) dopamine receptor (Homo sapiens) (UniProt P21728). To be noted: Compound concentration 10.0 uM.
In test [6] the target is 5-hydroxytryptamine receptor 1E (Homo sapiens) (UniProt P28566). To be noted: Compound concentration 10.0 uM.
Sequence of 5-hydroxytryptamine receptor 1E (Homo sapiens) (P28566 whole entry): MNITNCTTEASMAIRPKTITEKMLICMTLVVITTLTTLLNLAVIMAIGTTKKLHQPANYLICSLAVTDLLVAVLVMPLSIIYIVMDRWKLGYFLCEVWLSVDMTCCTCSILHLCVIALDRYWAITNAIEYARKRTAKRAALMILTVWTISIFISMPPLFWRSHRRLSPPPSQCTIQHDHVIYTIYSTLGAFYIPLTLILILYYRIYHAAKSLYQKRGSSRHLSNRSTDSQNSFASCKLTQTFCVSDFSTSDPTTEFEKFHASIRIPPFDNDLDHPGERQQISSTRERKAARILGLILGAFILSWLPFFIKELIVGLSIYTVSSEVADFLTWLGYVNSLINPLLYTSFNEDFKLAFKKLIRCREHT
The target in test [7] is Histamine H2 receptor (Homo sapiens) (UniProt P25021). As to conditions: Compound concentration 10.0 uM.
Sequence of Histamine H2 receptor (Homo sapiens) (P25021 whole entry): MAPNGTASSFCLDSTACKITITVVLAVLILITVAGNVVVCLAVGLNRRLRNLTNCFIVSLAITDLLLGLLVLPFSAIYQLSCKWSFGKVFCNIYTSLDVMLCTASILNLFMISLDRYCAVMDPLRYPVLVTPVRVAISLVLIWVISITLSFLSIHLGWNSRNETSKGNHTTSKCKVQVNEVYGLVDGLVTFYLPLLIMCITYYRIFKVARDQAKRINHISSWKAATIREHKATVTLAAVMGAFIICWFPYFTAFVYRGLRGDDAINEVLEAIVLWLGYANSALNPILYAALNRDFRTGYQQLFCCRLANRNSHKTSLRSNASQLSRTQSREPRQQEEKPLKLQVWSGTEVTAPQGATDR
The target in test [8] is 5-hydroxytryptamine receptor 6 (Homo sapiens, UniProt P50406). As to conditions: Compound concentration 10.0 uM.
Sequence of 5-hydroxytryptamine receptor 6 (P50406 whole entry): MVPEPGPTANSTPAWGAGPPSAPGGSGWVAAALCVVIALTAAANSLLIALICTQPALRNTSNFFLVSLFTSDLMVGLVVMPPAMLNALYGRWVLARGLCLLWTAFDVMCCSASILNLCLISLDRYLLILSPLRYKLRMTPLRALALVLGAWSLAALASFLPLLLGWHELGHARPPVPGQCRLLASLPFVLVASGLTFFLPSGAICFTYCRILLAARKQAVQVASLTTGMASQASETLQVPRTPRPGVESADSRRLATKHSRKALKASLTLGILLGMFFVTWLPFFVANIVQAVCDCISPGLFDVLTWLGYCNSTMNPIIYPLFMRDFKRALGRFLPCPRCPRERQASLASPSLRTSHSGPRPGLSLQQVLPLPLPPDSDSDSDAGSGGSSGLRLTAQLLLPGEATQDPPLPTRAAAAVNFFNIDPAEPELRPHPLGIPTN
Test [9] has as its target Sigma non-opioid intracellular receptor 1 (Homo sapiens) (UniProt Q99720). To be noted: Compound concentration 10.0 uM.
Test [10] deals with Muscarinic acetylcholine receptor M4 (Homo sapiens) (UniProt P08173). As to conditions: Compound concentration 10.0 uM.
Sequence of Muscarinic acetylcholine receptor M4 (Homo sapiens) (P08173 whole entry): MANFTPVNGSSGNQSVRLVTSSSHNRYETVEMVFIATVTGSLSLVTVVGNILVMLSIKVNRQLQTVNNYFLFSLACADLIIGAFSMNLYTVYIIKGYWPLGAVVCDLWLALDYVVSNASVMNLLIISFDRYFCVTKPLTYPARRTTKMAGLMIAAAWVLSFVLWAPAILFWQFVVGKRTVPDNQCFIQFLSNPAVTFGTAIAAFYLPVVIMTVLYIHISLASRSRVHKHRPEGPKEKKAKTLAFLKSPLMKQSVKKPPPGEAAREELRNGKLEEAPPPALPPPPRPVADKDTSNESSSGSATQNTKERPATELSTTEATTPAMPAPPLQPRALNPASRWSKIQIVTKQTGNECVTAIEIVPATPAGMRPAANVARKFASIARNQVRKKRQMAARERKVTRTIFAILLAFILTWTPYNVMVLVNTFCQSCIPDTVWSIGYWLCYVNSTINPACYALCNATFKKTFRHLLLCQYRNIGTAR
Test [11] addresses 5-hydroxytryptamine receptor 3A (Homo sapiens) (UniProt P46098). As to conditions: Compound concentration 10.0 uM.
In test [12] the target is 5-hydroxytryptamine receptor 2A (Homo sapiens) (UniProt P28223). To be noted: Compound concentration 10.0 uM.
In test [13] the target is Alpha-2C adrenergic receptor (Homo sapiens) (UniProt P18825). As to conditions: Compound concentration 10.0 uM.
Test [14] addresses Alpha-1B adrenergic receptor (Homo sapiens) (UniProt P35368). As to conditions: Compound concentration 10.0 uM.
The target in test [15] is T2, D(4) dopamine receptor (Homo sapiens) (UniProt P21917).
T2 sequence (whole entry): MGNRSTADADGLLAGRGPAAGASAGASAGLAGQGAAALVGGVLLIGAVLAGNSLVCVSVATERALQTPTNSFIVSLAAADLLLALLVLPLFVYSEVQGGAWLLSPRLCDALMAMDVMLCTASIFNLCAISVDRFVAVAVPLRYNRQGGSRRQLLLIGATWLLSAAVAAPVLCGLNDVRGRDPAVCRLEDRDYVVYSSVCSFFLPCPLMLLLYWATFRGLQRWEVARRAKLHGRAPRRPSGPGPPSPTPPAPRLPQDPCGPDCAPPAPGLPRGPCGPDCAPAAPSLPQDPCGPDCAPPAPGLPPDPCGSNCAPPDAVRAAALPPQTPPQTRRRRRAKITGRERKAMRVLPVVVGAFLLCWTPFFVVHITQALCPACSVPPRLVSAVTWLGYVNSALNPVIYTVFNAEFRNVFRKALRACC
To be noted: Compound concentration 10.0 uM.

The target in test [16] is Alpha-2B adrenergic receptor (Homo sapiens) (UniProt P18089). To be noted: Compound concentration 10.0 uM.
Test [17] addresses Beta-3 adrenergic receptor (Homo sapiens) (UniProt P13945). To be noted: Compound concentration 10.0 uM.
In test [18] the target is T3, Alpha-1D adrenergic receptor (Homo sapiens) (UniProt P25100).
T3 sequence (whole entry): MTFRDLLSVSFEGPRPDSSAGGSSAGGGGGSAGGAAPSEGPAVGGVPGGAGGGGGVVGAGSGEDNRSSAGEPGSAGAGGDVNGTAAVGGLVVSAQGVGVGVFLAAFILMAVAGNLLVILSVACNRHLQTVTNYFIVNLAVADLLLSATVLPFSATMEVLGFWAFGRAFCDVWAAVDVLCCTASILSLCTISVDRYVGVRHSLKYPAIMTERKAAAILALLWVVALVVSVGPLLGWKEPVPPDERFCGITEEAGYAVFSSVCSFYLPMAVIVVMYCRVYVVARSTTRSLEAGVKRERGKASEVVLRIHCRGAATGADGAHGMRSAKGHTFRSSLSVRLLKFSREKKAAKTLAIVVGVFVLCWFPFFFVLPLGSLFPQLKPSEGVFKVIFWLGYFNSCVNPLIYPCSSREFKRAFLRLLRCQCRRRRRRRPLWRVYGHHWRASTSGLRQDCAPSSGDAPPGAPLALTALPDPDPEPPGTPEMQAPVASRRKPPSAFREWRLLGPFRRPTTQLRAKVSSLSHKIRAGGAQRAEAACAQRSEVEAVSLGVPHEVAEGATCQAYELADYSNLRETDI
To be noted: Compound concentration 10.0 uM.

For test [19], the target named is T4, Muscarinic acetylcholine receptor M1 (Homo sapiens) (UniProt P11229).
T4 sequence (whole entry): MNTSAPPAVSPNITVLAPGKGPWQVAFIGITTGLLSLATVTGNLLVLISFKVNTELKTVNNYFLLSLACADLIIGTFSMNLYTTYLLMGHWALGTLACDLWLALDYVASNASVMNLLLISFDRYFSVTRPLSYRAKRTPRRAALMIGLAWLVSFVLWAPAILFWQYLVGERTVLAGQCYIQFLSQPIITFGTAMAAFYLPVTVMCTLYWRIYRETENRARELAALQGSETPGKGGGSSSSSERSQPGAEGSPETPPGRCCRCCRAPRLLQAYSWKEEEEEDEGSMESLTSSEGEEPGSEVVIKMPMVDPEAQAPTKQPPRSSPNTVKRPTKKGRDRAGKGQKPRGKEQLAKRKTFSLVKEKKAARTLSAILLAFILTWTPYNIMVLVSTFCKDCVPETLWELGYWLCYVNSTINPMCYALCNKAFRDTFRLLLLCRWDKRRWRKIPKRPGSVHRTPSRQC
To be noted: Compound concentration 10.0 uM.

For test [20], the target named is 5-hydroxytryptamine receptor 1B (Homo sapiens) (UniProt P28222). To be noted: Compound concentration 10.0 uM.
Sequence of 5-hydroxytryptamine receptor 1B (Homo sapiens) (P28222 whole entry): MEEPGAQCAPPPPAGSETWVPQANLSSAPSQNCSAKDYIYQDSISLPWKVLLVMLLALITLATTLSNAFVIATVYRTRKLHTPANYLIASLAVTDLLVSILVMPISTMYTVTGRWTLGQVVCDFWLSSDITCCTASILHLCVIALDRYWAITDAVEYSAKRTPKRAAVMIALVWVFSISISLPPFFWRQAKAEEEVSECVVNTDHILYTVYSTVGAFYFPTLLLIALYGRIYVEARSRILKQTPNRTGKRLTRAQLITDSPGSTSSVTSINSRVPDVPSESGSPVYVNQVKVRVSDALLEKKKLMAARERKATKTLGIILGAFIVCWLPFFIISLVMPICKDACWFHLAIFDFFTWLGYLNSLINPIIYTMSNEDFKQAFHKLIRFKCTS

Sequence of Sigma non-opioid intracellular receptor 1 (Homo sapiens) (Q99720 whole entry): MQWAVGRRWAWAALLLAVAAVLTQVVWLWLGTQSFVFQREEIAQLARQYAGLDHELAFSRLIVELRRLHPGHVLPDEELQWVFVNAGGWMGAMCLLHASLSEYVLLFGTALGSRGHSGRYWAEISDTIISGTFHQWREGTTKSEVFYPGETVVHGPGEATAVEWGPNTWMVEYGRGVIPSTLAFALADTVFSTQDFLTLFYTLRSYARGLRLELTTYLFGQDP
Sequence of Beta-1 adrenergic receptor (Homo sapiens) (P08588 whole entry, looked up): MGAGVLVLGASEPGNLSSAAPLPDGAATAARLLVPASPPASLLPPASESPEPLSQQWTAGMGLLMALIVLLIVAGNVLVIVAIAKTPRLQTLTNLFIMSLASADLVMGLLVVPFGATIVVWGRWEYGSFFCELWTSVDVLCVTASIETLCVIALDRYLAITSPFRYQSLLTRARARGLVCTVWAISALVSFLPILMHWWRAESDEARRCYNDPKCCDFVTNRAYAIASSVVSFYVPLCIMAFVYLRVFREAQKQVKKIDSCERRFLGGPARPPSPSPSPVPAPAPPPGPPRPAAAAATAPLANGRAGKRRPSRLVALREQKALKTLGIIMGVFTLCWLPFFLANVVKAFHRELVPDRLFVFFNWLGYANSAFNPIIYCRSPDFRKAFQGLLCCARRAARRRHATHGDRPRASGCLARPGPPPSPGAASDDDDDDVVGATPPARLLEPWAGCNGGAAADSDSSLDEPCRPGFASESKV
Sequence of 5-hydroxytryptamine receptor 3A (Homo sapiens) (P46098 whole entry): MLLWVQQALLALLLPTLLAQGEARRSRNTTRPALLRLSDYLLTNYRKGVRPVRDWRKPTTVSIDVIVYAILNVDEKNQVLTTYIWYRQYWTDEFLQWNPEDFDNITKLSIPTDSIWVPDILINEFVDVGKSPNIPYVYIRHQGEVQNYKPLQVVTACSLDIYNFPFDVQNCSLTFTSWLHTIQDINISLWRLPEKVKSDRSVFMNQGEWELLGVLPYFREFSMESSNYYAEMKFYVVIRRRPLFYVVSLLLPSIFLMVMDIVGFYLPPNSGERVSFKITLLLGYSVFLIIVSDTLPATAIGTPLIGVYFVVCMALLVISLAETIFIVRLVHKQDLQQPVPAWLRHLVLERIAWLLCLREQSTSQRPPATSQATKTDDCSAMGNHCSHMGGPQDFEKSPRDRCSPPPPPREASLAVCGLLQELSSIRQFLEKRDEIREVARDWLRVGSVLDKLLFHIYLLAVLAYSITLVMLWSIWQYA
Sequence of Hepatocyte growth factor receptor (P08581 whole entry): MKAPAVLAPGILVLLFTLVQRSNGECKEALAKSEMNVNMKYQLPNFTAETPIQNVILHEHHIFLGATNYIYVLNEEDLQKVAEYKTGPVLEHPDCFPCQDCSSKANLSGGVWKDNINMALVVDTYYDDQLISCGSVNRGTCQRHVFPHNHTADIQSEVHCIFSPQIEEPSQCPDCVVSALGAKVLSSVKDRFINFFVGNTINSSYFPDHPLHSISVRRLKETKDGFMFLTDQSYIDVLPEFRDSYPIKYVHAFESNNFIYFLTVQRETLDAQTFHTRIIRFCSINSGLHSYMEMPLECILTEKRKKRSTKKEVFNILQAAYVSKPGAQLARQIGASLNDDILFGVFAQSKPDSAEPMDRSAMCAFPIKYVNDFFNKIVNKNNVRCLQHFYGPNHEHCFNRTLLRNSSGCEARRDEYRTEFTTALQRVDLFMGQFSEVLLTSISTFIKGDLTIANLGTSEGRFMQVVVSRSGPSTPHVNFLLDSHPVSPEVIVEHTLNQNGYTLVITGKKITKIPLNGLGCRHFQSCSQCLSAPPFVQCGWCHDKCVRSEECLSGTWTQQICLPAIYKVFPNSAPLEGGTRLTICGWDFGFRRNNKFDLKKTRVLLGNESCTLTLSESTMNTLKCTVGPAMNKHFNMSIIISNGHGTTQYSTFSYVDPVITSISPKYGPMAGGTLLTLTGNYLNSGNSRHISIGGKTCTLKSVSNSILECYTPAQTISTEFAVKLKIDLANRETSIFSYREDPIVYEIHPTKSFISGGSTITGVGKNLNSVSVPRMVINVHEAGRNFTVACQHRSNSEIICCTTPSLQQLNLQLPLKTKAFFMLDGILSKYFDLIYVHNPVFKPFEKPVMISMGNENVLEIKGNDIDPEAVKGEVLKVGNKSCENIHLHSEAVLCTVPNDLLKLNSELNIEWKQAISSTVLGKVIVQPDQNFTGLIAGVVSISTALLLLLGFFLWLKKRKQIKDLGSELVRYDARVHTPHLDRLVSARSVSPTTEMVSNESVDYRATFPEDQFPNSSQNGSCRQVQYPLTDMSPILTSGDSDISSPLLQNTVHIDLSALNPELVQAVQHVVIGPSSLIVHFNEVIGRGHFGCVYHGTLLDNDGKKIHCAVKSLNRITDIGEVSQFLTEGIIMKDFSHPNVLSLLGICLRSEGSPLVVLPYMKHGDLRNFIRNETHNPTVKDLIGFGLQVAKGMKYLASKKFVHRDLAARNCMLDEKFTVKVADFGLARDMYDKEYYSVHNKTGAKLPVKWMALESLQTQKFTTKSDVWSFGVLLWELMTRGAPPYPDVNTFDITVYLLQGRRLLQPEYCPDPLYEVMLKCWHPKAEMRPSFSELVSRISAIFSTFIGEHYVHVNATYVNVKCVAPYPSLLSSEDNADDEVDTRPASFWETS

Regarding `CC1=C(C#N)C(c2ccc3[nH]nc(C)c3c2)C(C#N)=C(C)N1` [BAY-474], the inhibition is -8.64% in test [1]; 16.9% in test [2]; 2.16% in test [4]; 6.92% in test [5]; 8.21% in [6]; 12.6% in test [7]. Also, the inhibition in [8] was 20.7%; in test [9] it was -9.08%; in [10], 5.33%; in [11] it was 33%; in test [12], 8.75%; in [13], -4.65%. The inhibition in test [14] was 1.79%; in test [15], 24%; in test [16], 8.04%; in test [17], 21.1%; in test [18], 2.5%; in test [19], 13.9%. Also, the inhibition in [20] was 0.48%. Moreover, in test [3], the IC50 was < 0.001 µM (active).
As to `CC1=C(C#N)[C@@H](c2ccc3[nH]nc(C)c3c2)C(C#N)=C(c2ccc(Cl)cc2)N1` [BAY-827], the inhibition in test [1] was 18.8%; in [2], 33.4%; in [4] it was 4.66%; in test [5], 6.7%; in [6], -3.84%; in [7], 14.1%. Besides, the inhibition in test [8] is 55.7%; in test [9] it was 14.6%; in test [10] it was 13%; in test [11], 2.6%; in test [12], 5.76%; in test [13] it was -1.57%. The inhibition in [14] is 21.7%; in [15] it was 5.34%; in test [16], 4.71%; in test [17], 24.3%; in test [18], 7.74%; in test [19], 8.17%. The inhibition in test [20] was 17.2%. Moreover, the IC50 in [3] is 11 µM (not active).
